Test results taken from patent US20240156832A1, “METHODS OF METABOLIZING METOPIMAZINE AND ITS SALTS” (Neurogastrx, Inc., priority 2020, published 2024).
“Also recorded” adds a separate entry of the source.

Experiments:
[1] = system: rhFMO1, rhFMO3, and rhFMO5; assay: Incubation with recombinant FMO; type: in vitro ADME, human; details: 1 μM MPZ, pH 8.4
Procedure: Protein concentrations for all rFMO isoforms were 0.05 mg/mL. A positive control (benzydamine, 100 μM) was incubated for 20 minutes. […] All other procedures were the same as described previously. The negative control reactions were incubated absence of NADPH.

[2] = Incubation with HKM for FMO; type: in vitro ADME, human; details: HKM pH 8.4, NADPH, with/without methimazole, heat inactivation
Procedure: MPZ, at 1.0 and 10.0 μM, was incubated with HLM or HKM to determine the contribution of microsomal FMOs on the metabolism of MPZ. A reaction mixture containing KPi buffer (pH 8.4), HLM or HKM (0.5 mg/mL protein) and MPZ (1.0 and 10.0 μM) was pre-incubated for 3-5 minutes at 37° C. The reaction was initiated by the addition of NADPH into the reaction mixture. Reaction was conducted for 0 and 60 min. A positive control (benzydamine, 100 μM) was incubated in duplicate for 0 and 20 minutes. Parallel incubation was conducted by adding 1 mM methimazole, a non-specific FMO inhibitor, under identical conditions. Heat inactivated microsomes (50° C. for at least 5 minutes) was incubated under identical conditions negative control. All other procedures were the same as described previously.

[3] = biological target: T1, human liver cytosolic aldehyde oxidase (Homo sapiens, UniProt Q06278); assay: Incubations with HLC fractions for AO activity; type: in vitro ADME; details: HLC 1 mg/mL, 10 μM MPZ
T1 construct: tissue Xenotech; host or cells: pooled human liver cytosol
T1 sequence (Q06278 1-1338): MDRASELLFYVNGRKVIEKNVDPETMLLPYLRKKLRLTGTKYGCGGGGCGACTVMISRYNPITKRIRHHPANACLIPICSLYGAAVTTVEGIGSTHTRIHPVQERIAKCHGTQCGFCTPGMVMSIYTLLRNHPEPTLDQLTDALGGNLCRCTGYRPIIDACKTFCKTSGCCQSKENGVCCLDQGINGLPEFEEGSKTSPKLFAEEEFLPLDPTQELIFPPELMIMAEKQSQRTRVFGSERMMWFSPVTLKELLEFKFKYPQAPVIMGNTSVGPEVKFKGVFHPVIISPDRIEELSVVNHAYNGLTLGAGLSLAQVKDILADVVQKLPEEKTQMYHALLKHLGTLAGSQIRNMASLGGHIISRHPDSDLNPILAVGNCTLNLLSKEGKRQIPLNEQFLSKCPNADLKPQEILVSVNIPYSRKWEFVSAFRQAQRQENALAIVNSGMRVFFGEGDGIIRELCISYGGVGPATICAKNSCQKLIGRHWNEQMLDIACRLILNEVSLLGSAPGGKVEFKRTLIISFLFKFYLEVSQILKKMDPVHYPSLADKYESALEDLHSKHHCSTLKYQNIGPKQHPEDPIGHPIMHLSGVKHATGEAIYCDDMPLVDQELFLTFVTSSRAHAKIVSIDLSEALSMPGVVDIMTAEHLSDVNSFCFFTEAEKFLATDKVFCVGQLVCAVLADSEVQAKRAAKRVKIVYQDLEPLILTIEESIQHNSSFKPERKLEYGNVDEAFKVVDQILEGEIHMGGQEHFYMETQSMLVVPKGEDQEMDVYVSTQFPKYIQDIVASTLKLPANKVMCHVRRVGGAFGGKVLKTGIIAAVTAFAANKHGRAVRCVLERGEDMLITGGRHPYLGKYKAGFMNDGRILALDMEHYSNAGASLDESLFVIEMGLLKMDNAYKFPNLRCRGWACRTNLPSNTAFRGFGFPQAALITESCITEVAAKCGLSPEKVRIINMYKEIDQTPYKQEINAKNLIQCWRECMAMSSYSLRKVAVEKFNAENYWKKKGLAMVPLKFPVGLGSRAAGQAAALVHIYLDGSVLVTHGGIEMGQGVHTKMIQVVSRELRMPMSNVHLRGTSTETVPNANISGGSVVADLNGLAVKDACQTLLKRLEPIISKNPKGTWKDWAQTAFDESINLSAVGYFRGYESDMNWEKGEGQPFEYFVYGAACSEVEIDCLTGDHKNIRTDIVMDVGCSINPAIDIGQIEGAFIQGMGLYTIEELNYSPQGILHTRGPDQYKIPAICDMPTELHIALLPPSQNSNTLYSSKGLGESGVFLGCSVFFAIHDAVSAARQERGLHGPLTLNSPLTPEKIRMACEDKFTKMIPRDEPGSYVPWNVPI
Procedure: The metabolism of MPZ was evaluated in the human liver cytosolic incubation. A metabolic incubation was performed with HLC (1 mg/mL protein) and 10 μM MPZ at 37° C. for on an orbital shaker for 60 min. […] Another set of incubation was also conducted 1 μM phthalazine, a known substrate for aldehyde oxidase as positive control, under identical conditions.

[4] = system: human microsomal liver amidase; assay: Incubations with HLM for microsomal hydrolase/amidase activity; type: in vitro ADME; details: HLM, 10 μM MPZ, 60 min, pH 7.4, 8.4 and 9.4
Procedure: Incubations with HLM for Microsomal Hydrolase/Amidase Activity Prior to the reaction for amidase activity, the reaction mixture containing KPi buffer (pH 7.4, 8.4, or 9.4) and HLM was pre-incubated at 50° C. for 5 minutes to inactivate CYP and FMO activities in HLM. The mixture was placed on ice to cool down. An aliquot was taken out which was considered as t=0 min incubation. Then 10 μM MPZ was added into the remaining mixture and incubated at 37° C. on an orbital shaker for 60 minutes. A parallel set of incubations was conducted with 10 μM MPZ in the presence at 2 and 16 μM, of BNPP (a known inhibitor of amidase). All reactions were in triplicate. The total percentage of organic solvent in incubation mixture was ≤0.1%. The reactions were terminated by the addition of chilled acetonitrile: methanol, 90:10, (v/v). The samples were vortex-mixed and stored at ≤−70° C. and were subjected analyzed by LC MS/MS.

Row | SMILES | metabolism of MPZ by recombinant FMO enzymes [1] | metabolite production in HKM [2] | metabolite production in HKM ([2]; listed as metopimazine) | Metopimazine Acid Formation, 100 μM Menadione ([3]; incubation time 0 min) [nM] | Metopimazine Acid Formation, No Menadione ([3]; incubation time 0 min) [nM] | Metopimazine Acid Formation, 100 μM Menadione ([3]; incubation time 60 min) [nM] | Metopimazine Acid Formation, No Menadione ([3]; incubation time 60 min) [nM] | MPZA formation as a function of pH [4]
1 | CS(=O)(=O)c1ccc2c(c1)N(CCCN1CCC(C(N)=O)CC1)c1ccccc1S2 [MPZ, metopimazine] | did not metabolize MPZ | did not produce any metabolites | No metabolites were produced under any condition |  |  |  |  | 
2 | CS(=O)(=O)c1ccc2c(c1)N(CCCN1CCC(C(=O)O)CC1)c1ccccc1S2 [MPZA, metopimazine acid] |  |  |  | 0.00 | 0.00 | 718.90 ± 21.40 | 1371.66 ± 70.93 | faster the higher the pH; also recorded: maximal at the highest pH tested, pH 9.4; also recorded: occurs at all pHs and increases at pHs above physiologic pH
